Like-named read-outs stand apart in the source and are kept apart here.
Tests used:
[1] = tested on: brain, duodenum and liver MAO A; test: In vivo inhibition of MAO A of different tissues after chronic treatment; design: species or system rat; settings: cerebral vs intestinal or hepatic
Experimental: 4. "In vivo" inhibition of MAO A and B of different tissues after chronic treatment.
In order to evaluate the effect of compounds in a chronic treatment, the inhibitory activity on brain, duodenum and liver MAO A and B has been studied "in vivo". Wistar male rats were treated at two dose levels, 0.1 and 0.25 mg/kg i.p. for 15 and 21 days. Control rats received similar amounts of saline solution.

[2] = tested on: reuptake of 5-HT; test: Reuptake of 5-HT in vitro, crude synaptosomal preparation; assay type: biochemical, rat
Experimental: Influence on the reuptake of monoamines "in vitro" was also studied. The effect of the compounds on the reuptake of 5-HT noradrenaline and dopamine was studied using Wistar male rats (350±2.5 g). They were kept under controlled light and temperature conditions and fed "ad libitum" until killed. The animals were killed by decapitation and brains were frozen and stored at -20° C. prior to analysis. Brains were dissected on an ice-filled petri dish. The cortices for 5-HT and noradrenaline assay and striatum (including caudate nucleus, putamen and globus pallidus) for dopamine assay were immediately weighed and homogenized. […] All drugs used in the study were dissolved in the incubation medium in a concentration range 10^-4 to 10^-8 M and were preincubated with the crude synaptosomal preparation obtained from the treated brains, for 5 min. at 37° C. or 0° C. before the addition of the labelled substrate.

[3] = "Cheese effect" by tyramine potentiation; settings: in vivo
Experimental: The secondary effects were studied mainly on the cardiovascular system, and the effects on the arterial pressure, heart rate and rhythm, P-R interval and isolated organ (rabbit aortic rings and isolated atria), were evaluated both after acute and chronic treatments. In the same way, the "cheese effect" was studied by means of the tyramine potentiation.

[4] = tested on: reuptake of noradrenaline; test: Reuptake of noradrenaline in vitro, crude synaptosomal preparation; assay type: biochemical, rat
Experimental: Influence on the reuptake of monoamines "in vitro" was also studied. The effect of the compounds on the reuptake of 5-HT noradrenaline and dopamine was studied using Wistar male rats (350±2.5 g). They were kept under controlled light and temperature conditions and fed "ad libitum" until killed. The animals were killed by decapitation and brains were frozen and stored at -20° C. prior to analysis. Brains were dissected on an ice-filled petri dish. The cortices for 5-HT and noradrenaline assay and striatum (including caudate nucleus, putamen and globus pallidus) for dopamine assay were immediately weighed and homogenized. The standard incubation medium contained: 1.7 μM ^14 C-5-HT); 0.5μM ^3 H-noradrenaline or 1 μM ^3 H-dopamine with 0.1 ml of the crude synaptosomal preparation. All drugs used in the study were dissolved in the incubation medium in a concentration range 10^-4 to 10^-8 M and were preincubated with the crude synaptosomal preparation obtained from the treated brains, for 5 min. at 37° C. or 0° C. before the addition of the labelled substrate.

[5] = Potentiation of L-tryptophan, L-dopa and tryptamine; settings: in vivo
From the text: (§1) The action mechanism was studied in acute and chronic treatments on the interaction response with clonidine, salbutamol (Richard, J. Intern. J. Neuroscience, 9:17-19, 1979) and tetrabenazine (Pletscher, A.: An. N.Y. Aca. Sci. 80:1039-1045, 1959), and the response to the potentiation with L-dopa, L-tryptophan, tryptamine (Jalfre, M. et al., Arch. Int. Pharmacodyn, 159:194-221, 1982) and β-phenylethylamine (Ortmann, et al, Psychopharmacol. 84:22-27, 1984).

[6] = Behavioural Despair (Porsolt's test); assay type: in vivo
Experimental: The pharmacological profile was carried out assessing the antidepressant activity with the following tests:
Behavioural Despair (Porsolt et al. Arch. Int. Pharmacodyn; 229:327-336, 1977),

[7] = Interaction with clonidine-induced hypoactivity; assay type: in vivo
From the text: as §1

[8] = tested on: cerebral β-adrenergic receptors; test: Effects of chronic treatment on β receptors; assay type: in vivo; settings: chronic administration in the rat
Experimental: (§2) Effects of chronic treatment on α2 -, β- and 5-HT2 receptors. The test compounds, at a dose of 10 mg/kg/day i.p., were administered for 21 days to Wistar male rats (250±2.4 g). After treatment the animals were killed, brains were dissected and cortices were scraped from the dorsal surface of the […]. ^3 H UK 14304, ^3 H Dihydroalprenalol and ^3 H Ketanserin were used as ligands in the binding studies.

[9] = tested on: α-adrenergic receptors; test: Effects of chronic treatment on α2 receptors; assay type: in vivo; settings: chronic administration in the rat
Experimental: as §2

[10] = tested on: rat cerebral MAO A and B; test: MAO inhibitory activity at the biochemical level (reversibility and selectivity)
From the text: To determine MAO inhibitory activity at the biochemical level the following tests are used:
1. "In vitro inhibition" of rat cerebral MAO A and B giving I50 values for the two forms of the enzyme. Male Wistar rats (200 g) were used. Brains were obtained by decapitation and were homogenized. As substrates of the enzymes ^14 C-5-hydroxytryptamine oxalate 54 mCi/mmol and ^14 C-β-phenylethylamine were used. The residual enzymatic activities were referred to the activities in absence of MAO inhibitor (100%).
2. "Ex vivo inhibition" of rat cerebral MAO A and B after single dosing.
This gives the degree of inhibition in vivo of both forms of the enzyme and variation of this inhibition with time after treatment with a single dose. The compounds were administered intraperitoneally to male Wistar rats (175 g.) at a dose of 5 mg/kg in 1 ml/kg (H2 O). Animals were sacrificed by decapitation 24 h. and 7 days after treatment and brains were removed and homogenized. Enzymatic activities determined in treated animals, were compared with the activities in control animals (100%).
3. "Ex vivo" inhibition of rat cerebral MAO A and B after repeated dosing.
Male Wistar rats (175 g) were used.
The compounds were administered once daily intraperitonally for 7 days at a dose of 0.5 and 1 mg/kg in 1 ml/kg […]. […]

Structure (SMILES): C#CCN(C)Cc1cc2cc(OC)ccc2n1C [(l), N-methyl-N-propargyl-2-(1-methyl-5-methoxy-indolyl)methylamine]
- MAO A inhibitory effect, comparison of tissues [1]: higher on cerebral MAO A than on intestinal or hepatic MAO A
- Inhibition of the reuptake of 5-HT [2]: potent inhibitor
- Potency as inhibitor of 5-HT reuptake relative to chlorimipramine or imipramine [2]: much higher
- "Cheese effect" [3]: some "cheese effect"
- Effect on the reuptake of noradrenaline [4]: no effect
- Potentiation of effects of L-tryptophan, L-dopa and tryptamine [5]: confirm the MAO inhibitory activity
- minimal effective dose ([6]; acute treatment, read-out: Porsolt's test MED, acute): 50 mg/kg
- minimal effective dose ([6]; chronic treatment, read-out: Porsolt's test MED, chronic): 20 mg/kg
- Persistence of activity in Porsolt's test ([6]; in vivo): at least 24 hours
- Hypoactivity by clonidine, acute treatment ([7]; acute treatment): not modifying it
- Hypoactivity by clonidine, chronic treatment ([7]; chronic treatment (5 days)): antagonized
- Number or affinity of cerebral β-adrenergic receptors [8]: does not modify
- Modifications on α-adrenergic receptors [9]: not statistically significant
- Type of MAO inhibition (reversibility, selectivity) [10]: irreversible and selective inhibitor of MAO A
